Data from US20210029995A1, “Use of Volatile Organic Compounds as Pesticides” (Certis Europe B.V., priority 2018, published 2021).
Where a name gives a salt, the structure may show the parent alone.

Experiments:
[1] = system: S. feltiae; experiment: Dose mortality assay for the EPNs (Example 2); format: in vivo, Steinernema feltiae
Procedure: (§1) All statistical analyses were carried out using RStudio statistics package (RStudio, Inc. version 1.0.153), using “MASS” and “multcomp” packages. For all mortality data, differential sensitivity between EPN species and/or insect species and differential compound potency were determined using a generalised linear model (GLM) and Tukey's range test in post-hoc analysis. LD50 values were calculated using a GLM and the “dose.p” function within the “MASS” package. An ANOVA was carried out on the chemotactic responses of EPNs to VOCs, with the strength of response compared at each time and concentration. Welch's t-tests were used to compare means of mortality results in the final EPNs efficacy assay.
(§2) Dose mortality assays were performed using 3-octanone and 1-octen-3-ol. The assays were performed as described in Example 1, except that the EPNs (S. carpocapsae (Sc), S. feltiae (Sf) and H. bacteriophora (Hb)) were exposed to different doses of the VOCs (5, 10, 15 and 20 μl). The mortality was recorded as described previously at 3, 6, 12 and 24 hr post treatment. Controls included EPNs only (no VOC) and EPNs+1-octene. The results are shown in FIG. 2 (results 3 hr post treatment), 3 (results 6 hr post treatment), 4 (results 12 hr post treatment) & 5 (results 24 hr post treatment).

[2] = system: H. bacteriophora; experiment: Dose mortality assay for the EPNs (Example 2); format: in vivo, Heterorhabditis bacteriophora
Procedure: as §1, §2

[3] = system: S. carpocapsae; experiment: Dose mortality assay for the EPNs (Example 2); format: in vivo, Steinernema carpocapsae; conditions: for mortality: after 24 hr
Procedure: as §1, §2

[4] = system: root knot nematode M. hapla; conditions: for nematicidal activity against M. hapla: 5 μl and 10 μl
Procedure: (§3) Authenticated M. brunneum VOCs, along with other selected VOCs, were screened for nematicidal activity against S. feltiae and H. bacteriophora. 750 μl of nematode suspension containing approximately 5000 Us in tap water, was spread uniformly over the water agar surface (2.6% w/v agar, 5 mM potassium phosphate pH 6, 1 mM CaCl2 and 1 mM MgSO4) of a Petri dish. Each Petri dish (90 mm) contained 20 ml of the water agar medium. The inoculated plates were kept in darkness for 3 hr at room temperature to acclimatize. The plates were then exposed to 20 μl of the VOC dispensed from a 8 mm paper disc (Whatman™, 0.34 mm thickness) positioned on a 25×25 mm glass coverslip placed in the centre of the Petri dish lid (FIG. 1A). The plates were sealed with a double layer of Parafilm and were kept in the dark at 21° C. and checked after 24 hr. The number of live and dead nematodes were counted with the aid of a stereo binocular microscope (30×).
A study was conducted to determine the susceptibility of the root knot nematode M. hapla, a major crop pest, to 3-octanone and 1-octen-3-ol. Single egg-mass populations of M. hapla were kindly provided by Dr Ivan Grove (Harper Adams University/Crop and Environment Sciences). Four-week-old tomato plants (Solanum lycopersicum cv. Rutgers) were grown in a greenhouse. Soil in each pot was infested by pipetting egg masses of M. hapla suspended in tap water and cultivated at approximately 25±2° C. in a greenhouse. Six months following inoculation, tomato plants were uprooted and root systems were carefully washed with running tap water to remove adhered soil. The roots were cut into small pieces and extracted by the Baermann funnel method for 3-5 days to obtain live nematodes. The inoculum concentration included a range of life stages and was adjusted to approximately 2000 individuals using tap water by the aid of a haemocytometer. A mortality assay was carried out as described in Examples 1 and 2 above. The assay was carried out at two doses of the VOCs (5 μl and 10 μl) and the mortality was recorded at 3, 6 and 24 hr post treatment. There were three replicates per treatment and the whole experiment was repeated twice.

[5] = system: H. bacteriophora; conditions: 20 μl VOC, checked after 24 hr, sealed Petri dish
Procedure: as §3, with “750 μl of nematode suspension containing approximately 5000 Us in tap water, was spread uniformly over the water agar surface (2.6% w/v agar, 5 mM potassium phosphate pH 6, 1 mM CaCl2 and 1 mM MgSO4) of a Petri dish.” left out
(§4) The deposition was predetermined using bacterial cultures highly sensitive to these VOCs. The edge of the circular zone of inhibition delineated the area of activity.
(§5) Mean of mortality was calculated from the total number of alive and dead individuals across all circles. There were five replicates per treatment and the whole experiment was repeated twice.

[6] = system: S. feltiae; conditions: 20 μl VOC, checked after 24 hr, sealed Petri dish
Procedure: as §3, with “750 μl of nematode suspension containing approximately 5000 Us in tap water, was spread uniformly over the water agar surface (2.6% w/v agar, 5 mM potassium phosphate pH 6, 1 mM CaCl2 and 1 mM MgSO4) of a Petri dish.” left out
as §4, §5

[7] = system: S. carpocapsae, S. feltiae and H. bacteriophora; experiment: Dose mortality assay, statement for all three EPNs; format: in vivo; conditions: for mortality: all three EPNs, after 24 hr
Procedure: as §3
Dose mortality assays were performed using 3-octanone and 1-octen-3-ol. The assays were performed as described in Example 1, except that the EPNs (S. carpocapsae (Sc), S. feltiae (Sf) and H. bacteriophora (Hb)) were exposed to different doses of the VOCs (5, 10, 15 and 20 μl). The mortality was recorded as described previously at 3, 6, 12 and 24 hr post treatment. Controls included EPNs only (no VOC) and EPNs+1-octene.

Compound	Mortality (%) (Mean ± SE) H. bacteriophora (Hb) [5]	Mortality (%) (Mean ± SE) S. feltiae (Sf) [6]	also measured
C=CC(O)CCCCC (centres unmarked) [1-octen-3-ol]	91.6±2.1	100	LD50 ([1]; 6 hr): 10.56 µL; LD50 ([2]; 6 hr): 21.72 µL; LD50 ([3]; 24 hr): 41.01 µL; nematicidal activity against M. hapla [4]: strong nematicidal activity; mortality response ([4]; M. hapla, after 3 hr and 6 hr, 5 and 10 μl): dose dependent response; dead nematodes ([4]; M. hapla, after 24 hr, both doses (5 μl and 10 μl)): over 90%; mortality [7]: very high
C=CCCCCCC [1-octene, reference compound]	19.4 ± 3.8	20.1 ± 3	mortality ([1]; after 24 hr): ≤ 50%; mortality [3]: ≤ 50%; mortalities ([7]; EPNs, over time (3-24 hr)): extremely low
CC(O)C(C)O (centres unmarked) [2,3-Butanediol]	11.4 ± 2.3	12.5 ± 7.2	–
CCCCCC(=O)CC [3-octanone]	100	100	mortality ([1]; at all time points (3, 6, 12, 24 hr)): > 99%; LD50 (μl) ([1]; no LD50 calculated): a (>99% mortality from 3 hr); LD50 ([2]; 3 hr): 5.68 µL; mortality ([2]; time points later than 3 hr): exceeded 90%; LD50 ([3]; 12 hr): 94.88 µL; mortality ([3]; all doses (5-20 μl)): all nematodes were dead at all doses; nematicidal activity against M. hapla [4]: strong nematicidal activity; mortality ([4]; in vivo): 100%; mortality [7]: very high
C=C(C)[C@H]1CC=C(C)CC1 [(R)-(+)-Limonene]	5.9 ± 1.9	16.7 ± 3.2	–
CC(C)CCO [Isoamyl alcohol]	9.7 ± 2.1	20.8 ± 3	–
CC(C)CCOC=O [Isoamyl formate]	46.6±1.8	58	–
COC(=O)CC(C)C [Methyl isovalerate]	55 ± 2.6	38.1 ± 7	–
CCCCCCCCCCCCC [Tridecane]	4.1 ± 1.6	32.3 ± 5	–
CCCCCCCCCCC [Undecane]	7.5 ± 2.7	25.4 ± 5.6	–
Farnesene	7.8 ± 3.1	43 ± 1.1	–
